Patent US9688637B2, “3-amidobenzamides and uses thereof for increasing cellular levels of A3G and other A3 family members” (Northwestern University, priority 2014, dated 2017)

What was measured:
Wild-type HIV-1 = test: A3G-mediated restriction of wild-type HIV-1; virus from 293T stably expressing A3G, TZM-bl readout; format: cell-based; conditions: Human immunodeficiency virus 1, HEK-293T, read-out: A3G-mediated Restriction by Compounds on Wild-type HIV-1 (% of HIV replication relative to DMSO treated Control)
Protocol: To test the effect of compounds shown to boost A3G-Luc levels in our screening systems on inhibition of wild-type HIV-1 replication by A3G or A3F, 293T cell lines stably expressing A3G or A3F were plated (750,000 cells per well in 6-well plate). At 24 hrs post plating, 1.5 μg of a wild-type (Vif-positive) HIV-1 proviral vector, NL4.3, was transfected into the 293T stable cell lines expressing either A3G or A3F. At 4 hrs post transfection, either DMSO as a control or an individual compound from series described below was added into the culture medium at a 10 μM concentration. At 1 day post transfection, supernatant fluids containing viral particles were filtered through […] filter to remove cellular debris. To test the effect of compound on HIV-1 replication, TZM-bl indicator cells were plated at a density of 10,000 cells/well in a 96 well culture plate 24 hrs prior to infection. TZM-bl indicator cells express luciferase gene under the control of HIV LTR promoter and are routinely used to measure HIV-1 replication capability. On the day of infection, the culture medium was removed and the cells inoculated with equal amount of HIV-1 particles in triplicate with 100 μl of viral supernatants in culture medium containing 20 μg/ml DEAE-dextran. After 24 hrs of incubation, culture medium was removed from each well and replaced with 100 μl of Britelite Plus luciferase assay substrate. Following 5 min. of incubation at room temperature, 75 μl of each cell lysate was transferred to a 96-well OptiPlate 96 and luminescence was measured in a VICTOR X2 Multilabel Reader as described above. Relative infectivity was calculated by plotting luciferase activity from viral particle from DMSO treated A3G or A3F cell lines as 100%. We only tested effect A3F- or A3G mediated restriction of HIV-1 replication by compounds boosting luciferase activity by more than 160% compared to DMSO control sample.

HEK293 = test: Cancer cell death, cell numbers vs DMSO; format: cell-based, human; conditions: 6 μM, 16 days; embryonic kidney cell line lacking A3B, wild-type functional p53
From the text: To test the effect of the compounds described below on cancer cell death, cell lines derived from different types of cancer were studied in vitro. MCF10A, MCF7, T47D, MDA-MB-157 and MDA-MB-231 are breast cancer cell lines. NHPrE, BHPrE, RWPE1, DU145, and PC3 cells are prostate cell lines. HeLa is cervical cancer cell line. HEK293 is human embryonic kidney cell line lacking A3B expression. There are differences among these cancer cell lines in p53 expression (44-46). MCF10A, MCF7, NHPrE, BHPrE and HEK293 cells have wild-type and functional p53. RWPE1 and HeLa cells have wild-type p53 but the p53 protein in these cell line is not functional because of effects of human papilloma virus E6 protein. T47D, MDA-MB-231, and DU145 cell lines have mutant p53, while MDA-MB-157 and PC3 cells have no p53 expression. 25,000 cells per well were plated in 6 well plates. In the case of HEK293 cells. 500,000 cells per well in 6-well plates were used instead. After 24 hrs, culture medium was replaced with new medium containing either DMSO as control or one of the compounds described below (6 μM per well concentration). After 8 days incubation with compounds, cell numbers were counted from each well and plotted with number of cells from DMSO treated sample as 100%. We performed the experiments at least twice. HEK293, MCF7 and T47D cells they were maintained for 16 days with compounds instead of 8 days.

BC-1 = BC-1 primary effusion lymphoma cell proliferation; format: cell-based; conditions: primary effusion lymphoma (PEL) cell line (FIG. 10)
From the text: FIG. 10. A primary effusion lymphoma (PEL) cell line (BC-1, infected with both Kaposi's sarcoma herpesvirus and Epstein Barr Virus) is also killed by the listed compounds.

A3G-Luc = A3G-Luc luciferase screen in 293T cells stably expressing A3G-Luc; format: cell-based, human; conditions: for A3G-Luc Activity (% of Relative Light Units compared to DMSO treated control): 10 μM, 48 hrs, DMSO = 100%
HIV NL4-3 = test: Infectivity of virions from 293T co-transfected with NL4-3 and A3G, TZM-bl cells; format: cell-based, HIV-1; conditions: co-transfection of 293T with HIV NL4-3 and A3G (FIG. 8)
Protocol: FIG. 8. 293T cells were co-transfected with […] of NL4.3 plasmid DNA and 400 ng of either control or A3F/G DNAs, with or without NU52. Infectivity of equal amounts of resulting viruses (normalized by HIV-1 p24 antigen) were measured using TZM-bl cells. NU-52 treatment of producer cell reduced infectivity of virus produced from those cells.

COc1ccc(C(=O)Nc2ccc(Cl)c(Cl)c2)cc1NC(=O)CC1CC1 [NU-466]
activity at 10 µM (Wild-type HIV-1): 72% | cell killing (cell numbers vs DMSO) (HEK293): not killed | BC-1 cell proliferation (BC-1): inhibit BC-1 cell proliferation | A3G-Luc Activity (% of Relative Light Units compared to DMSO treated control) (A3G-Luc): 318%

COc1ccc(C(=O)Nc2ccc(Cl)c(Cl)c2)cc1NC(=O)C1CCC1 [NU-302]
activity at 10 µM (Wild-type HIV-1): 60% | cell killing (cell numbers vs DMSO) (HEK293): not killed | BC-1 cell proliferation (BC-1): inhibit BC-1 cell proliferation | A3G-Luc Activity (% of Relative Light Units compared to DMSO treated control) (A3G-Luc): 196%

COc1ccc(C(=O)Nc2ccc(Cl)c(Cl)c2)cc1NC(=O)C(C)C [NU-52]
activity at 10 µM (Wild-type HIV-1): 57% | cell killing (cell numbers vs DMSO) (HEK293): not killed | BC-1 cell proliferation (BC-1): inhibit BC-1 cell proliferation | infectivity of virions (HIV NL4-3): decreased infectivity | A3G-Luc Activity (% of Relative Light Units compared to DMSO treated control) (A3G-Luc): 178% | increase of A3G (A3G-Luc; 293T stably expressing A3G-Luc, without Vif (FIG. 6)): about 3 fold
